According to US20240287138A1, “CYCLIC PEPTIDES FOR INHIBITING TNF RECEPTOR 1 ACTIVITY” (Merck Sharp & Dohme LLC, priority 2023, published 2024):
Numbered stars: 1 amine (or outer) side, 2 acyl side, 3 side chain; on linkers, the order of the positions; unused ones are H or OH. Bridge positions count the residues as written; N and C are the ends. Square brackets hold non-standard residues; d marks the D form. Peptide text beside a SMILES is read from it. Trp(βS-Me,7-OMe) = COc1cccc2c([C@H](C)[C@H](N)C(=O)O)c[nH]c12; Achc(cis-1,4) = O=C([C@H]1CC[C@@H](N[*:1])CC1)[*:2]; Trp(7-Cl) = N[C@@H](Cc1c[nH]c2c(Cl)cccc12)C(=O)O; X15 = C[C@H](c1ccc(O)cc1)[C@H](N[*:1])C(=O)[*:2]; Phe(4-CONH2) = NC(=O)c1ccc(C[C@H](N)C(=O)O)cc1; Phe(4-COOH) = N[C@@H](Cc1ccc(C(=O)O)cc1)C(=O)O; Trp(7-aza) = N[C@@H](Cc1c[nH]c2ncccc12)C(=O)O; Phe(4-CH2NH2) = NCc1ccc(C[C@H](N)C(=O)O)cc1; Pip(5R-OH) = O=C(O)[C@@H]1CC[C@@H](O)CN1; X4 = O=C([C@H]1C=C[C@@H](N[*:1])C1)[*:2]; X1 = O=C([C@@H]1CC[C@H](N[*:1])C1)[*:2]; hPhe = N[C@@H](CCc1ccccc1)C(=O)O; 4Pal = N[C@@H](Cc1ccncc1)C(=O)O; NMeE = CN[C@@H](CCC(=O)O)C(=O)O; dHyp = O=C(O)[C@H]1C[C@H](O)CN1; αMeS = C[C@](N)(CO)C(=O)O; NMeA = CN[C@@H](C)C(=O)O; Nle = CCCC[C@H](N)C(=O)O; Sar = CNCC(=O)O

Assays:
[1] = molecular target: T1, human soluble TNFR1 (sTNFR1) (Homo sapiens, UniProt P19438); test: Human sTNFR1-peptide displacement assay (LanthaScreen Eu TR-FRET binding assay)
T1 construct: made in house; host or cells: Sf21 (baculovirus)
T1 sequence (P19438 with tags, fused parts or gaps): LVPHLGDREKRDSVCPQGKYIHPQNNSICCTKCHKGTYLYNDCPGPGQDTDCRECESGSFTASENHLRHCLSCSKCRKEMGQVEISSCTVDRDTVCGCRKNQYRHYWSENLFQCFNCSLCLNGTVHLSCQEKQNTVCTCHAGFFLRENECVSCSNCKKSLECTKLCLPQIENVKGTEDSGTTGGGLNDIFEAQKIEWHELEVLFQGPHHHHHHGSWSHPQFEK
Outline: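 Readout is the 665/615 nm TR-FRET ratio (Eu anti-His donor, streptavidin-Alexa647 acceptor), normalized to DMSO and saturating displacer, fit by Morrison-based five-parameter logistic for Kd^app. His-tagged sTNFR1 (1-211) prebound to 100 nM biotinylated peptide SEQ ID NO.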

[2] = molecular target: T2, human TNFR1 extracellular domain (ECD) protein (Homo sapiens, UniProt P19438); test: SPR binding affinity to captured human TNFR1 ECD
T2 construct: HRV 3C protease cleavage site (C); 6His (C, cleaved yes); made in house; host or cells: Sf21 insect cells (baculovirus), secreted
T2 sequence (P19438 30-211): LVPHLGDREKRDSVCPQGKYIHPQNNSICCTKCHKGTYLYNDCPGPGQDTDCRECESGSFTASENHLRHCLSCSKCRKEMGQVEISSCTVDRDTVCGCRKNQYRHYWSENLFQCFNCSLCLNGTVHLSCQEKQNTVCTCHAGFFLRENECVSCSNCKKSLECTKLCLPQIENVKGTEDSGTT
Outline: (§1)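 Biotinylated avi-tagged human TNFR1 or TNFR2 ECD, expressed in Sf21 insect cells, captured on streptavidin SPR chip; peptide analytes run in 10 mM HEPES pH 7.4, 150 mM NaCl, 3 mM EDTA, 0.05% P20, 2% DMSO. kon and koff measured, affinity KA calculated.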

[3] = molecular target: T3, human TNFR2 ECD protein (Homo sapiens, UniProt P20333); test: SPR off-target binding (selectivity) to human TNFR2 ECD
T3 construct: HRV 3C protease cleavage site (C); 6His (C, cleaved yes); made in house; host or cells: Sf21 insect cells (baculovirus), secreted
T3 sequence (P20333 23-257): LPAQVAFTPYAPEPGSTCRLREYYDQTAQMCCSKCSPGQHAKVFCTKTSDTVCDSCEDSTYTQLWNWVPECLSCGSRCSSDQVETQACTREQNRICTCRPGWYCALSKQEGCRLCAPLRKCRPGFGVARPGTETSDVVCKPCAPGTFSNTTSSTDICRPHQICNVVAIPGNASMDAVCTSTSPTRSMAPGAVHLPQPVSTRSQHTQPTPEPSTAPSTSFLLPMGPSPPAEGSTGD
Outline: as §1

CN1CC(=O)N[C@@H](Cc2c[nH]c3ccccc23)C(=O)N[C@H](C(N)=O)CSCC(=O)N[C@@H](CCCCN)C(=O)N[C@@H](Cc2ccc(O)cc2)C(=O)N[C@@H](CO)C(=O)N[C@@H](Cc2c[nH]c3ccccc23)C(=O)N2CCC[C@@H]2C(=O)N[C@@H](CCC(N)=O)C(=O)N[C@@H](Cc2ccncc2)C(=O)N[C@@H](Cc2c[nH]c3ccccc23)C(=O)N[C@@](C)(CO)C(=O)N[C@@H](Cc2ccc(C(=O)O)cc2)C(=O)N[C@@H](Cc2ccc(O)cc2)C1=O [SEQ ID NO. 242] ({CH2CO}-KYSW[dP]Q[4Pal]W[αMeS][Phe(4-COOH)]Y[Sar]WC-NH2; thioether N-14)
IC50 [1]: 1.21 nM
Kd [2]: 0.3 nM
Kd [3]: > 1000 nM

CCCC[C@@H]1NC(=O)CSC[C@@H](C(N)=O)NC(=O)[C@H]([C@@H](C)c2c[nH]c3c(OC)cccc23)NC(=O)CN(C)C(=O)[C@H](Cc2ccc(O)cc2)NC(=O)[C@H](Cc2ccc(C(=O)O)cc2)NC(=O)[C@](C)(CO)NC(=O)[C@H](Cc2c[nH]c3c(Cl)cccc23)NC(=O)[C@H](Cc2ccncc2)NC(=O)[C@H](CC(N)=O)NC(=O)[C@H](CCC(=O)O)N(C)C(=O)[C@H](Cc2c[nH]c3ncccc23)NC(=O)[C@H](CO)NC(=O)[C@H]([C@H](C)c2ccc(O)cc2)NC1=O [SEQ ID NO. 243] ({CH2CO}-[Nle][X15]S[Trp(7-aza)][NMeE]N[4Pal][Trp(7-Cl)][αMeS][Phe(4-COOH)]Y[Sar][Trp(βS-Me,7-OMe)]C-NH2; thioether N-14)
Kd [1]: 0.49 nM
Kd [2]: 0.06 nM
Kd [3]: > 1000 nM

CCCC[C@@H]1NC(=O)[C@H]2CC[C@H](CC2)NC(=O)[C@H]([C@@H](C)c2c[nH]c3c(OC)cccc23)NC(=O)CN(C)C(=O)[C@H](Cc2ccc(O)cc2)NC(=O)[C@H](Cc2ccc(C(=O)O)cc2)NC(=O)[C@](C)(CO)NC(=O)[C@H](Cc2c[nH]c3c(Cl)cccc23)NC(=O)[C@H](Cc2ccncc2)NC(=O)[C@H](CC(N)=O)NC(=O)[C@H](CCC(=O)O)N(C)C(=O)[C@H](Cc2c[nH]c3ccccc23)NC(=O)[C@H](CO)NC(=O)[C@H](Cc2ccc(CN)cc2)NC1=O [SEQ ID NO. 244] (cyclo([4Pal][Trp(7-Cl)][αMeS][Phe(4-COOH)]Y[Sar][Trp(βS-Me,7-OMe)][Achc(cis-1,4)][Nle][Phe(4-CH2NH2)]SW[NMeE]N))
IC50 [1]: 0.49 nM
Kd [1]: 0.96 nM
Kd [2]: 0.09 nM
Kd [3]: > 1000 nM

CCCC[C@@H]1NC(=O)[C@@H]2CC[C@@H](C2)NC(=O)[C@H]([C@@H](C)c2c[nH]c3c(OC)cccc23)NC(=O)CN(C)C(=O)[C@H](Cc2ccc(C(=O)O)cc2)NC(=O)[C@H](Cc2ccc(C(N)=O)cc2)NC(=O)[C@](C)(CO)NC(=O)[C@H](Cc2c[nH]c3c(Cl)cccc23)NC(=O)[C@H](Cc2ccc(C(=O)O)cc2)NC(=O)[C@H](CC(N)=O)NC(=O)[C@H]2C[C@H](O)CN2C(=O)[C@H](Cc2c[nH]c3ccccc23)NC(=O)[C@@H]2CC[C@@H](O)CN2C(=O)[C@H](Cc2ccncc2)NC1=O [SEQ ID NO. 247] (cyclo([4Pal][Pip(5R-OH)]W[dHyp]N[Phe(4-COOH)][Trp(7-Cl)][αMeS][Phe(4-CONH2)][Phe(4-COOH)][Sar][Trp(βS-Me,7-OMe)][X1][Nle]))
Kd [1]: 0.09 nM
Kd [2]: 0.07 nM
Kd [3]: > 1000 nM

C[C@H]1C(=O)N[C@@H](CC(N)=O)C(=O)N[C@@H](Cc2ccncc2)C(=O)N[C@@H](Cc2c[nH]c3ccccc23)C(=O)N[C@@](C)(CO)C(=O)N[C@@H](Cc2ccc(C(=O)O)cc2)C(=O)N[C@@H](Cc2ccc(O)cc2)C(=O)N(C)CC(=O)N[C@@H](Cc2c[nH]c3ccccc23)C(=O)N[C@@H]2C=C[C@@H](C2)C(=O)N[C@@H](CCc2ccccc2)C(=O)N[C@@H](Cc2ccncc2)C(=O)N[C@@H](CO)C(=O)N[C@@H](Cc2c[nH]c3ccccc23)C(=O)N1C [SEQ ID NO. 248] (cyclo([4Pal]SW[NMeA]N[4Pal]W[αMeS][Phe(4-COOH)]Y[Sar]W[X4][hPhe]))
IC50 [1]: 1.45 nM
Kd [1]: 1.56 nM
Kd [2]: 2 nM
Kd [3]: > 1000 nM
